Measurements published in patent US20100056525A1, “5- AND 6- SUBSTITUTED BENZIMIDAZOLE THIOPHENE COMPOUNDS” (priority 2006, published 2010).
pIC50: −log10 of the molar value.

Experiments:
PLK1 kinase domain = target: T1, PLK1 kinase domain (Homo sapiens, UniProt P53350); test: Assay for Inhibition of PLK1 (SPA, 33P-ATP); type: biochemical; conditions: 2 nM PLK1 kinase domain, 1 μM ATP, 22° C.; read-out: PLK1 pIC50 (converted)
T1 construct: made in house; host or cells: baculovirus infected T. ni cells
Protocol: A. Preparation of 6× N-Terminal His-Tagged PLK Kinase Domain
All procedures were performed at 4° C. Cells were lysed in 50 mM HEPES, 200 mM NaCl, 50 mM imidazole, 5% glycerol; pH 7.5. The homogenate was centrifuged at 14K rpm in a SLA-1500 rotor for 1 hr and the supernatant filtered through a 1.2 micron filter. The supernatant was loaded onto a Nickel chelating Sepharose (Amersham Pharmacia) column and washed with lysis buffer. Protein was eluted using 20%, 30% and 100% buffer B steps where buffer B was 50 mM HEPES, 200 mM NaCl, 300 mM imidazole, 5% glycerol; pH 7.5. Fractions containing PLK were determined by SDS-PAGE. Fractions containing PLK were diluted five-fold with 50 mM HEPES, 1 mM DTT, 5% glycerol; pH 7.5, then loaded on an SP Sepharose (Amersham Pharmacia) column. After washing the column with 50 mM HEPES, 1 mM DTT, 5% glycerol; pH 7.5, PLK was step eluted with 50 mM HEPES, 1 mM DTT, 500 mM NaCl; 5% glycerol; pH 7.5. PLK was concentrated using a 10 kDa molecular weight cutoff membrane and then loaded onto a Superdex 200 gel filtration (Amersham Pharmacia) column equilibrated in 25 mM HEPES, 1 mM DTT, 500 mM NaCl, 5% glycerol; pH 7.5. Fractions containing PLK were determined by SDS-PAGE. PLK was pooled, aliquoted and stored at −80° C. Samples were quality controlled using mass spectrometry, N-terminal sequencing and amino acid analysis.
B. Enzyme Activity +/− Inhibitors was Determined as Follows:
All measurements were obtained under conditions where signal production increased linearly with time and enzyme. Test compounds were added to white 384-well assay plates (0.1 μL for 10 μL and some 20 μL assays, 1 μL for some 20 μL assays) at variable known concentrations in 100% DMSO. DMSO (1-5% final, as appropriate) and EDTA (65 mM in reaction) were used as controls.
Reaction Mix (10 or 20 μL) was quickly added to each well immediately following addition of enzyme via automated liquid handlers and incubated 1-1.5 h at 22° C. The 20 μL enzymatic reactions were stopped with 50 μL of stop mix (50 mM EDTA, 4.0 mg/mL Streptavidin SPA beads in Standard Dulbecco's PBS (without Mg^2+ and Ca^2+), 50 μM ATP) per well. The 10 μL reactions were stopped with 10 μL of stop mix (50 mM EDTA, 3.0 mg/mL Streptavidin-coupled SPA Imaging Beads (“LeadSeeker”) in Standard Dulbecco's PBS (without Mg^2+ and Ca^2+), 50 μM ATP) per well. Plates were sealed with clear plastic seals, spun at 500×g for 1 min or settled overnight, and counted in Packard TopCount for 30 seconds/well (regular SPA) or imaged using a Viewlux imager (LeadSeeker SPA). Signal above background (EDTA controls) was converted to percent inhibition relative to that obtained in control (DMSO-only) wells.

[1] = tested on: HCT-116 (human colon) cells; test: Cell-Titer Glo Cell Growth Inhibition Assay; type: cell-based; conditions: HCT-116 cells, 72 h incubation, CellTiter-Glo, read-out: HCT116 IC50
Protocol: A549-L (human lung), Colo 205 (human colon), HCT-116 (human colon), HT29 (human colon), MX-1 (human breast), SKOV3 (human ovary) and P388 (murine leukemia) cell lines were cultured in RPM11640 containing 10% fetal bovine serum at 37° C. in a 5% CO2 incubator. Cell lines were split into T75 flasks (Falcon #353136) two to three days prior to assay set up at density which yields approximately 70-80% confluency at time of harvest for assay. Cells were harvested using 0.25% trypsin with EDTA (Glibco/Invitrogen #25200-056), Cell counts were performed on cell suspensions using Trypan Blue exclusion staining, cells were then plated in 105 µL of culture media per well at the following densities in 96 well Costar #3916 black flat bottom plates: A549-L 500 cells/well, Colo205 500 cells/well, HCT-116 500 cells/well, HT29 500 cells/well, MX-1 500 cells/well, SKOV3 500 cells/well and P388 250 cells/well. All plates were placed at 5% CO2 37° C. overnight and then test compounds were added the following day. One plate of each cell type was treated with CellTiter-Glo (Promega #G7573) for a day 0 proliferation measurement and read as described below. The test compounds were prepared in clear U bottom polypropylene 96 well plates (Falcon #35-1190 with consecutive two fold dilutions. 9 uL of these dilutions was added into each well of the cell plates. The final concentration of DMSO in all wells was 0.15%. Cells were incubated at 37° C., 5% CO2 for 72 h. Following 72 h of incubation with compounds each plate was developed and read. CellTiter-Glo reagent was added to assay plates using a volume equivalent to the cell culture volume in the wells. Plates were shaken for approximately 2 min and incubated at rt for approximately 15 min and the chemiluminescent signal was read on the Victor V or Envison 2100 reader. […] Concentration of compound that inhibited 50% of cell growth (IC50) was analyzed by 4 or 6 parameter fit of data using XLfit, value of no cell addition was substracted from all samples for background.

T1 sequence (P53350 21-346): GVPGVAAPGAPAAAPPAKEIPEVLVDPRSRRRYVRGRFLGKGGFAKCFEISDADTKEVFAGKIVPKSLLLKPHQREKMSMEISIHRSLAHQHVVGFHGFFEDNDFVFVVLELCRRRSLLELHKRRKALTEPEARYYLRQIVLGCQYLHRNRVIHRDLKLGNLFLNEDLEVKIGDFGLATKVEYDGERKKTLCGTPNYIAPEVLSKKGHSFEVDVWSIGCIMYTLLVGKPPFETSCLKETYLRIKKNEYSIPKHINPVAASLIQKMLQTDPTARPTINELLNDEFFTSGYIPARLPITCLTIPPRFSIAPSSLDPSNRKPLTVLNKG

- IC50 (PLK1 kinase domain): < 100 nM
- pIC50 [1]: > 6.30
SMILES: C[C@@H](Oc1cc(-n2cnc3cc(-c4ccnc(N(C)CCCN(C)C)c4)ccc32)sc1C(N)=O)c1ccccc1C(F)(F)F [Example 8, 5-(5-{2-[[3-(Dimethylamino)propyl](methyl)amino]-4-pyridinyl}-1H-benzimidazol-1-yl)-3-({(1R)-1-[2-(trifluoromethyl)phenyl]ethyl}oxy)-2-thiophenecarboxamide]
